From PMC6269819, “Evaluation of the Biological Activity of Naturally Occurring 5,8-Dihydroxycoumarin” (Molecules, 2013)
Several values for one entry are separate records, joined by “and”; a condition that tells them apart may be missing. Equal entries are not always repeated. Marks after values point to notes of the source that are not given here.

Tests used:
[1] = Ferric reducing/antioxidant power (FRAP) assay
Protocol: The ability of antioxidants to reduce ferric ion to the ferrous ion, (FRAP assay) is another indicator frequently used for assessing antioxidant power. Ferrous ion (Fe^2+) produced in this assay forms a blue complex (Fe^2+/TPTZ) absorbing at 593 nm. Briefly, the reagent was prepared by mixing acetate buffer (300 mM, pH 3.6), a solution of 10 mM TPTZ in 40 mM HCl, and 20 mM FeCl3 × 6H2O at 10:1:1 (v/v/v). Firstly 300 μL of freshly prepared FRAP reagent was heated to 37 °C and an absorbance (A0) of a blank reagent was read at 593 nm in a Biotek EL808 microplate reader (Winooski, VT, USA). Then 10 μL of 0.01% 5,8-DHC solution in water and 30 μL H2O were added and the absorbance (A) was recorded every 1 min during the whole monitoring period which lasted up to 30 min. The change in the absorbance (ΔA593 nm) between the final reading and A0 was calculated for each sample and related to the ΔA593 nm of a Fe^2+ reference solution which was measured simultaneously. The value is expressed in Trolox equivalents required to obtain similar reducing power.

[2] = system: Wistar rat bone marrow cells; assay: Micronucleus in vivo assay in rat bone marrow
Source text: (§1) Male albino Wistar rats aged 8–10 weeks and having body weight of 200–220 g, were used in the present study. The animals were supplied by the Animal Facility of the Department of Immunology, State Research Institute Center for Innovative Medicine. Ethical approval was given by the Committee of the Lithuanian Animal Care and Use. Prior to the start of the study, the animals were acclimatized for 7 days. They were housed under conditions of constant temperature, humidity and a light/dark cycle of 12 h/12 h with free access to standard commercial pellet diet and drinking water. The animals were randomly distributed into 11 experimental groups of six rats each.
(§2) We used a mixture of dimethylsulfoxide (DMSO) and sunflower oil (1:2) as the vehicle for 5,8-DHC (5,8-DHC was dissolved in DMSO and adjusted to the desired dose with sunflower oil immediately before administration). For the acute treatment, the animals received single intraperitoneal (i.p.) injections of 10 or 20 mg/kg of 5,8-DHC in 1 mL volume per 100 g body weight (b.w.). The negative control group comprised animals, given a single i.p. injection of vehicle (1 mL/100 g b.w.) and the positive control group, given cyclophosphamide (CP, 30 mg/kg adjusted in 0.5 mL/100 g b.w. in sterile physiological saline). A commercial form of cyclophosphamide was used (‘Endoxan’, ASTA Medica AG, Frankfurt, Germany). Blank controls comprised untreated animals. For the repeated treatment, 5,8-DHC (10 or 20 mg/kg) or vehicle was administered via gavage (1 mL/100 g b.w.) once a day for 3 consecutive days. Animals were sacrificed 24 h or 48 h after the last dose administration. Colchicine was applied i.p. at a dose of 2 mg/kg b.w. in 1 mL volume 90 min before sacrifice. Both femurs were dissected from each animal and used to obtain bone marrow preparations for the analysis of chromosome aberrations and micronucleus.
The bone marrow MN assay was conducted according to the standard procedure. Ends of the femura were cut off and the bone marrow was washed out with 2 mL of heat-inactivated foetal calf serum (Biochrom AG, Berlin, Germany), mixed thoroughly to obtain a fine suspension and centrifuged for 5 min at 150 × g. The supernatant was discarded and the cell pellet was carefully re-suspended. At least two smears per animal were prepared and allowed to air dry prior to fixation with methanol. The slides were stained in May-Grünwald solution followed by Giemsa (both Merck), coded and scored blind by the same scorer under magnification of 1000× (Jenaval, Zeiss, Jena, Germany). Micronucleated polychromatic erythrocyte (MNPCE) frequencies were based on the observation of 2,000 immature polychromatic erythrocytes (PCEs). Bone marrow toxicity was monitored by a decrease of PCE to total erythrocytes (e.g., PCEs+NCEs, normochromatic erythrocytes). At least 1,000 bone marrow erythrocytes per animal were analysed.

[3] = DPPH• radical scavenging assay; conditions: 16 min reaction
Protocol: Radical scavenging activity of extracts against stable DPPH^• (2,2-diphenyl-[…] hydrate, Sigma-Aldrich Chemie, Steinheim, Germany) was determined spectrophotometrically by using slightly modified method of Brand-Williams et al. (1995). 5,8-DHC was dissolved in methanol at 0.0025, 0.005, 0.010 and 0.025% concentrations before reaction. A 2 mL aliquot of DPPH^• solution in methanol (6 × 10^−5 M) was mixed with a 50 μL of 5,8-DHC solution in 1 cm path length quartz cuvette. The decreasing absorbance at 515 nm was recorded on a UV spectrophotometer Spectronic Genesys 8 (Spectronic Instruments, Rochester, NY, USA) during 16 min reaction time at 1 min intervals until the absorbance curve reached the plateau. The same amount of methanol and DPPH^• solution was used as a blank. The experiments were carried out in triplicate.

[4] = system: Wistar rat bone marrow cells; assay: Chromosome aberration in vivo assay in rat bone marrow
Source text: as §1, §2
Bone marrow cells were flushed from the femora with 0.55% potassium chloride hypotonic solution, incubated for 25 min at 37 °C and then centrifuged at 150 × g for 8 min. Cells were fixed in methanol-glacial acetic acid (3:1). Slides were prepared by a flame-drying procedure and then stained with 5% Giemsa stain. Slides were coded and scored blind by the single scorer at a magnification of 1500× (Nikon ECLIPSE E200, Tokyo, Japan). Only well-spread metaphases with 42 ± 1 chromosomes were used for the analysis. The frequencies of CAs were estimated in 100 metaphases per animal. Aberrations were recorded as individual types according to J.R. Savage’s classification but for convenience were grouped as chromatid breaks (ctb), chromatid exchanges (cte), chromosome breaks (csb) and chromosome exchanges (cse). Gaps were counted but not included into statistical analysis.

[5] = repeated gavage 3 × 10 mg/kg b.w., sacrifice 48 h
[6] = repeated gavage 3 × 20 mg/kg b.w., sacrifice 48 h
[7] = single i.p. 10 mg/kg b.w., sacrifice 24 h
[8] = single i.p. 10 mg/kg b.w., sacrifice 48 h
[9] = single i.p. 20 mg/kg b.w., sacrifice 24 h
[10] = single i.p. 20 mg/kg b.w., sacrifice 48 h

O=c1ccc2c(O)ccc(O)c2o1 [5,8-DHC, 5,8-Dihydroxycoumarin]
FRAP value [1]: 577 ± 0.0 mg/g in Trolox equivalents
cytotoxicity (decline of the proportion of PCEs to total erythrocytes) ([2]; rat, in vivo): no signs of 5,8-DHC cytotoxicity
effect on the frequency of MNPCEs ([2]; repeated gavage): no obvious effect
MNPCE (%± S.E.M.) [2, 5]: 0.24 ± 0.05%
PCE (%± S.E.M.) [2, 5]: 31.7 ± 4.0%
MNPCE (%± S.E.M.) [2, 6]: 0.23 ± 0.05%
PCE (%± S.E.M.) [2, 6]: 45.5 ± 3.5%
MNPCE (%± S.E.M.) [2, 7]: 0.56 ± 0.08 ^a %
PCE (%± S.E.M.) [2, 7]: 32.1 ± 1.9%
MNPCE (%± S.E.M.) [2, 8]: 0.30 ± 0.06%
PCE (%± S.E.M.) [2, 8]: 31.8 ± 5.6%
PCE (%± S.E.M.) [2, 9]: 36.6 ± 2.8%
MNPCE (%± S.E.M.) ([2]; single i.p. 20 mg/kg b.w., sacrifice 24 h, 20 mg/kg): 0.63% and 0.63 ± 0.04 ^a %
PCE (%± S.E.M.) [2, 10]: 26.6 ± 5.0%
MNPCE (%± S.E.M.) ([2]; single i.p. 20 mg/kg b.w., sacrifice 48 h, 20 mg/kg): 0.59% and 0.59 ± 0.14^a %
IC50 in DPPH• assay [3]: 0.0185%
increase of CAs compared with vehicle controls ([4]; all 5,8-DHC treated animals): No increase of CAs
Aberrant metaphases (%± S.E.M.) [4, 5]: 1.17 ± 0.17%
Aberrant metaphases (%± S.E.M.) [4, 6]: 2.43 ± 0.37%
Aberrant metaphases (%± S.E.M.) [4, 7]: 2.33 ± 0.49%
Aberrant metaphases (%± S.E.M.) [4, 8]: 1.67 ± 0.56%
Aberrant metaphases (%± S.E.M.) [4, 9]: 1.00 ± 0.36%
Aberrant metaphases (%± S.E.M.) [4, 10]: 2.60 ± 0.68%
